Measurements reported in patent publication US7417061B2, “Oxadiazole compounds and compositions for delivering active agents” (MHR Institutional Partners IIA LP, priority 1999, dated 2008).

test: Oral delivery of rhGH with delivery agent compound in rats; serum rhGH by immunoassay; assay type: in vivo, rat; settings: male Sprague-Dawley rats, compound 200 mg/kg, rhGH 3 mg/kg, 1 ml/kg, pooled samples (except compound 1)
Description: Oral gavage (PO) and/or intracolonic (IC) dosing solutions of delivery agent compound and rhGH in phosphate buffer were prepared. A solution of the compound was made either with the sodium salt of the compound or by converting the free acid to its sodium salt. Typically, a solution of the compound was prepared in phosphate buffer and stirred, adding one equivalent of sodium hydroxide (1.0 N) when making the sodium salt. The final dosing solutions were prepared by mixing the compound solution with an rhGH stock solution (15 mg rhGH/ml) and diluting to the desired volume (usually 3.0 ml). The compounds and rhGH dose amounts are listed below in Table 3.
The typical dosing and sampling protocols were as follows. Male Sprague-Dawley rats weighing between 200-250 g were fasted for 24 hours and administered ketamine (44 mg/kg) and chlorpromazine (1.5 mg/kg) 15 minutes prior to dosing. A dosing group of five rats was administered one of the dosing solutions. For oral gavage (PO), an 11 cm Rusch 8 French catheter was adapted to a 1 ml syringe with a pipette tip. The syringe was filled with dosing solution by drawing the solution through the catheter, which was then wiped dry. The catheter was placed down the esophagus leaving 1 cm of tubing past the rat's incisors. Solution was administered by pressing the syringe plunger. For intracolonic (IC) dosing, a 7.5 cm Rusch catheter tube (French 8 or 6) was adapted to a syringe with an Eppendorf pipette tip. The syringe was filled with the dosing solution by drawing the solution through the catheter tube. The catheter tube was wiped dry. K-Y jelly was applied to the tip, avoiding contact with the eye of the tube, and the tube was inserted into the colon through the anus until the tube was no longer visible. The solution was injected by pressing the syringe plunger, and the tube was removed.
Blood samples were collected serially from the tail artery, typically at 0, 15, 30, 45, 60 and 90 minutes after oral administration and 0, 10, 20, 30, 60 and 90 minutes after IC administration. The five samples from each time period were pooled (except for where compound 1 was dosed). Serum rHGH concentrations were quantified by an rHGH immunoassay test kit (Kit # K1F4015 from Genzyme Corporation Inc., Cambridge, Mass.). Previous studies indicated baseline values of about zero.
The maximum concentration for each group and the area under the curve (AUC), when available, are reported below in Table 3.

| Compound | Mean Peak Serum [rhGH] [ng/mL] |
| --- | --- |
| O=C(O)CCCCCCc1nnc(-c2cc(Cl)cc(Cl)c2O)o1 [Compound 6] | 0 |
| O=C(O)CCCCCCc1nnc(-c2cc(Cl)ccc2O)o1 [Compound 5] | 14.64 |
| Cc1nnc(CCCCCCC(=O)O)o1 [Compound 12] | 0 |
| COc1ccc(-c2nnc(CCCCC(=O)O)o2)c(O)c1 [Compound 9] | 14.25 |
